Reference: PMC6373673, “Purified PEGylated human glucagon-like peptide-2 reduces the severity of irradiation-induced acute radiation enteritis in rats” (Journal of Radiation Research, 2018)

Key:
[1] = test system: irradiation-induced acute radiation enteritis in rats; assay: Clinical, gross, histological and morphometric changes of the small intestine in irradiation-induced acute radiation enteritis; assay type: in vivo, Sprague Dawley (SD) rats; design: key to Shortening of villi (histologic) / Architectural disarray (histologic) / Diarrhea / Abdominal distention / Intestinal dilatation (gross) / Mucosal ulceration (gross) / Edema (gross): (–) = absent; (+) = present; Number of villi: unit not given here; settings: SD rats, 8 Gy abdominal X-ray; for Abdominal distention / Architectural disarray (histologic) / Diarrhea / Edema (gross) / Intestinal dilatation (gross) / Mucosal ulceration (gross) / Shortening of villi (histologic): killed 48 h after; for Protection against radiation-induced intestinal injury (villi integrity, histology): i.p. pretreatment 5 min before irradiation, result in words
Excerpt: (§1) Sixty adult male Sprague Dawley (SD) rats weighing 220–250 g were included in our study. Rats were subjected to 1 week of preliminary conditioning, during which time they received standard pellet rat chow and water ad libitum. They were housed in a temperature-and humidity-controlled environment, two animals per cage, with a 12-h light/12-h dark cycle. The Principles of Laboratory Animal Care (NIH Publication 85e23, revised 1996) were followed. Animal study protocols were approved by the Ethics Committee of the Fourth Military Medical University. The experiment was carried out at the Department of Pharmacy, Tangdu Hospital, Fourth Military Medical University.
(§2) X-ray irradiation was performed using a linear accelerator (Siemens primask) adjusted to provide X-ray irradiation, and carried out at the Department of Radiology and Oncology at the Tangdu Hospital. All of the animals were anesthetized with an intramuscular injection of pentobarbital sodium (100 mg/kg) and subjected to a single dose of 8 Gy abdominal X-radiation. The dose was delivered at a rate of 400 monitor units/min (1100 rad, 116.5 cGy/min, 100 cm source–skin distance) using a conventional radiation source, while the other parts of the body were carefully shielded.
(§3) Rats were randomized into six groups (Groups A–F). […] The remaining rats were subjected to a single dose of 8 Gy of abdominopelvic X-radiation and randomized further into five groups (Groups B–F). […] Briefly, rats were anesthetized with 100 mg/kg pentobarbital sodium, positioned supine, and subjected to a single fraction of 8 Gy delivered at a specific depth through abdominopelvic fields using X-rays at the rate of 0.74 Gy/min, while the other parts of the body were carefully shielded. Radiated rats were allowed to recover from the anesthetic and GLP-2 or Mono-PEG-hGLP-2 was administered by intraperitoneal injection. • Group A: non-X-ray irradiated (control). • Group B: X-ray irradiated. • Group C: pretreated with 3 μg of Mono-PEG-hGLP-2 in 0.3 ml of saline 5 min before X-ray irradiation. • Group D: pretreated with 10 μg of Mono-PEG-hGLP-2 in 0.3 ml of saline 5 min before X-ray irradiation. • Group E: pretreated with 30 μg of Mono-PEG-hGLP-2 in 0.3 ml of saline 5 min before X-ray irradiation. • Group F: pretreated with 30 μg of GLP-2 in 0.3 ml of saline 5 min before X-ray irradiation.
Animals were killed 48 h after X-ray irradiation, and laparotomies were performed. Immediately after the laparotomy, the small intestine (jejunum) was examined and removed. Two-centimeter segments of the jejunum and segments of the intestine showing edema and change in color (purple) were resected. Luminal contents were washed with 0.9% NaCl by injecting saline through the lumen of the small bowel segments. Tissue samples were pinned out on a paraffin block and floated upside down in 10% buffered formalin overnight, dehydrated, and embedded in paraffin. Sections of 4 μm were cut with a Leica sliding microtome (SM 2000R, Nussbach, Germany) and slides, containing a minimum of 10 sections, were stained with hematoxylin and erosin stains. Some representative intestine sections were processed for ultrastructural studies. Sections were evaluated quantitatively and qualitatively in a blinded fashion.
For histological assessment, villous height (from the base to the tip of the villi), crypt height (from the base to the tip of each crypt), and the number of villi per square millimeter was determined based on individual intestinal segments at five separate microscopic fields for each animal. They were recorded as the mean values using ocular micrometer-adapted light microscopy at a magnification of ×100.

[2] = test system: oxidative stress markers (MDA, SOD, GSH, GSH-Px) in the small intestine; assay: Intestinal MDA, SOD, GSH and GSH-Px (commercial assay kits) after X-ray irradiation; assay type: in vivo, Sprague Dawley (SD) rats; settings: SD rats, 8 Gy abdominal X-ray; for Intestinal GSH-Px activity / Intestinal SOD activity / Intestinal content of GSH / Intestinal content of MDA: small intestine 48 h after, mean ± S.D., n = 10
Excerpt: as §1, §2, §3
(§4) Malondialdehyde (MDA) levels, glutathione (GSH) content, and the activities of super oxide-dismutase (SOD) and glutathione peroxidase (GPx) were determined in the small intestine using commercial assay kits (Biyuntian Co., China) according to the manufacturer’s protocols. The protein content ratio was determined by Pierce™ BCA Protein Assay Kit (Thermo Fisher Scientific Inc., Rockford, IL, USA). All of the values were normalized to total intestinal protein. Small intestine tissue (20 mg) was homogenized in lysis buffer (150 mM NaCl, 0.1% SDS, 0.1% NP-40, 20 mM Tris-HCl pH 7.5) and protease inhibitor cocktail using a Tissue Lyser II homogenizer (Qiagen; Hilden, Germany). Total protein concentrations of tissue homogenates were detected by a Pierce™ BCA Protein Assay Kit (Thermo Scientific; Rockford, IL, USA). The levels of tumor necrosis factor-alpha (TNF-α) (Invitrogen; Carlsbad, CA, USA) and interleukin-2 (IL-2) (Bioo Scientific; Austin, TX, USA) in the tissue samples were determined using commercially available sandwich ELISA kits, according to the protocol recommended by the manufacturer. Results were recorded as the ratio of detected protein (TNF-α, IL-2) (pg/ml) to the amount of total protein (mg/ml).

TNF-α = assay: Intestinal TNF-α by sandwich ELISA after X-ray irradiation; assay type: in vivo, Sprague Dawley (SD) rats; settings: SD rats, 8 Gy abdominal X-ray, small intestine homogenate 48 h after, mean ± S.D., n = 10
Excerpt: as §1, §2
Rats were randomized into six groups (Groups A–F). […] The remaining rats were subjected to a single dose of 8 Gy of abdominopelvic X-radiation and randomized further into five groups (Groups B–F). […] Briefly, rats were anesthetized with 100 mg/kg pentobarbital sodium, positioned supine, and subjected to a single fraction of 8 Gy delivered at a specific depth through abdominopelvic fields using X-rays at the rate of 0.74 Gy/min, while the other parts of the body were carefully shielded. […]
as §4, with “All of the values were normalized to total intestinal protein. Small intestine tissue (20 mg) was homogenized in lysis buffer (150 mM NaCl, 0.1% SDS, 0.1% NP-40, 20 mM Tris-HCl pH 7.5) and protease inhibitor cocktail using a Tissue Lyser II homogenizer (Qiagen; Hilden, Germany).” left out

NF-κB = NF-κB expression in intestine (immunohistochemistry and Western blot) after X-ray irradiation; assay type: in vivo, Sprague Dawley (SD) rats; settings: SD rats, 8 Gy abdominal X-ray
Excerpt: as §1, §2
Rats were randomized into six groups (Groups A–F). […]
The expression of NF-κB was analyzed by Western blotting. […]

[3] = GLP-2 in vivo, introduction statement, no reference given; cited from earlier work
Excerpt: Glucagon-like peptide-2 (GLP-2) is a 33-amino acid peptide derived from the post-translational processing of proglucagon in enteroendocrine L-cells and cerebral neurons. GLP-2 exerts diverse effects related to the regulation of gastrointestinal growth and function, including stimulation of mucosal growth, inhibition of apoptosis, increased nutrient absorption, inhibition of gastric emptying and gastric acid secretion, reduction of intestinal permeability, stimulation of intestinal blood flow, and relaxation of intestinal smooth muscle. GLP-2 h ...

[4] = 3 μg i.p. 5 min before irradiation, jejunum 48 h after, five microscopic fields per animal, ×100, mean ± SD
[5] = 3 μg i.p. in 0.3 ml saline 5 min before irradiation
[6] = 10 μg i.p. in 0.3 ml saline 5 min before irradiation
[7] = 30 μg i.p. 5 min before irradiation, jejunum 48 h after, five microscopic fields per animal, ×100, mean ± SD
[8] = 30 μg i.p. in 0.3 ml saline 5 min before irradiation
[9] = 3 μg i.p. 5 min before irradiation
[10] = 10 μg i.p. 5 min before irradiation
[11] = 30 μg i.p. 5 min before irradiation

Mono-PEG-hGLP-2: human GLP-2 peptide conjugated to one 5 kDa mPEG chain by reaction with mPEG5k-SPA
Crypt height [1, 4]: 121.6 ± 6.3 μm
Height of villi [1, 4]: 268.1 ± 11.6 μm
Abdominal distention [1, 5]: +
Architectural disarray (histologic) [1, 5]: +
Diarrhea [1, 5]: –
Edema (gross) [1, 5]: +
Intestinal dilatation (gross) [1, 5]: +
Mucosal ulceration (gross) [1, 5]: +
Shortening of villi (histologic) [1, 5]: +
Height of villi ([1]; 10 μg i.p. 5 min before irradiation, jejunum 48 h after, five microscopic fields per animal, ×100, mean ± SD): 437.1 ± 19.4 μm
Abdominal distention [1, 6]: –
Architectural disarray (histologic) [1, 6]: –
Diarrhea [1, 6]: –
Edema (gross) [1, 6]: +
Intestinal dilatation (gross) [1, 6]: –
Mucosal ulceration (gross) [1, 6]: –
Shortening of villi (histologic) [1, 6]: +
Crypt height [1, 7]: 188.5 ± 8.3 μm
Height of villi [1, 7]: 507.9 ± 21.1 μm
Abdominal distention [1, 8]: –
Architectural disarray (histologic) [1, 8]: –
Diarrhea [1, 8]: –
Edema (gross) [1, 8]: –
Intestinal dilatation (gross) [1, 8]: –
Mucosal ulceration (gross) [1, 8]: –
Shortening of villi (histologic) [1, 8]: –
Protection against radiation-induced intestinal injury (villi integrity, histology) [1]: markedly protected the integrity of the villi and preserved the villous height
Intestinal GSH-Px activity [2, 9]: 331.2 ± 22.1 U/mg prot
Intestinal SOD activity [2, 9]: 40.47 ± 5.41 U/mg prot
Intestinal content of GSH [2, 9]: 20.22 ± 4.87 mg/g prot
Intestinal content of MDA [2, 9]: 5.27 ± 0.44 nmol/mg prot
Intestinal GSH-Px activity [2, 10]: 367.5 ± 42.3 U/mg prot
Intestinal SOD activity [2, 10]: 47.45 ± 8.24 U/mg prot
Intestinal content of GSH [2, 10]: 24.70 ± 10.22 mg/g prot
Intestinal content of MDA [2, 10]: 4.48 ± 0.37 nmol/mg prot
Intestinal GSH-Px activity [2, 11]: 412.7 ± 65.7 U/mg prot
Intestinal SOD activity [2, 11]: 56.11 ± 6.01 U/mg prot
Intestinal content of GSH [2, 11]: 24.01 ± 4.17 mg/g prot
Intestinal content of MDA [2, 11]: 4.01 ± 0.22 nmol/mg prot
Intestinal content of TNF-α (TNF-α; [9]): 7.68 ± 0.77 pg/mg prot
Intestinal content of TNF-α (TNF-α; [10]): 6.12 ± 1.01 pg/mg prot
Intestinal content of TNF-α (TNF-α; [11]): 4.78 ± 0.67 pg/mg prot
NF-κB staining in intestine versus X-ray-alone-treated rats (NF-κB; 3, 10, 30 μg i.p. 5 min before irradiation, immunohistological staining): decreased NF-κB staining in a dose-dependent manner
NF-κB expression in intestine versus model (NF-κB; moderate to high doses (10, 30 μg i.p.) before irradiation, P < 0.01): significantly inhibited NF-κB expression

CC[C@H](C)[C@H](NC(=O)[C@H](Cc1ccccc1)NC(=O)[C@H](CC(=O)O)NC(=O)[C@H](CCCNC(=N)N)NC(=O)[C@H](C)NC(=O)[C@H](C)NC(=O)[C@H](CC(C)C)NC(=O)[C@H](CC(N)=O)NC(=O)[C@H](CC(=O)O)NC(=O)[C@H](CC(C)C)NC(=O)[C@@H](NC(=O)[C@@H](NC(=O)[C@H](CC(N)=O)NC(=O)[C@H](CCSC)NC(=O)[C@H](CCC(=O)O)NC(=O)[C@H](CC(=O)O)NC(=O)[C@H](CO)NC(=O)[C@H](Cc1ccccc1)NC(=O)[C@H](CO)NC(=O)CNC(=O)[C@H](CC(=O)O)NC(=O)[C@H](C)NC(=O)[C@@H](N)Cc1c[nH]cn1)[C@@H](C)O)[C@@H](C)CC)C(=O)N[C@@H](CC(N)=O)C(=O)N[C@@H](Cc1c[nH]c2ccccc12)C(=O)N[C@@H](CC(C)C)C(=O)N[C@H](C(=O)N[C@@H](CCC(N)=O)C(=O)N[C@H](C(=O)N[C@@H](CCCCN)C(=O)N[C@H](C(=O)N[C@H](C(=O)N[C@@H](CC(=O)O)C(N)=O)[C@@H](C)O)[C@@H](C)CC)[C@@H](C)O)[C@@H](C)CC [GLP-2, hGLP-2(1–33) amide, reference compound]
Crypt height [1, 7]: 113.8 ± 10.9 μm
Height of villi [1, 7]: 229.7 ± 15.9 μm
Number of villi [1, 7]: 32.1 ± 4.1
Abdominal distention [1, 8]: +
Architectural disarray (histologic) [1, 8]: +
Diarrhea [1, 8]: +
Edema (gross) [1, 8]: +
Intestinal dilatation (gross) [1, 8]: +
Mucosal ulceration (gross) [1, 8]: +
Shortening of villi (histologic) [1, 8]: +
Protection against radiation-induced intestinal injury (villi integrity, histology) [1]: did not protect mice against radiation-induced intestinal injury
plasma half-life [3]: 7 min
Protective effect on intestinal antioxidant enzymes and inflammatory factors ([2]; 30 μg i.p. 5 min before irradiation, result in words): no significant protective effect
Intestinal GSH-Px activity [2, 11]: 246.1 ± 37.8 U/mg prot
Intestinal SOD activity [2, 11]: 35.27 ± 4.66 U/mg prot
Intestinal content of GSH [2, 11]: 18.22 ± 3.44 mg/g prot
Intestinal content of MDA [2, 11]: 5.51 ± 0.47 nmol/mg prot
Intestinal content of TNF-α (TNF-α; [11]): 9.78 ± 1.06 pg/mg prot
